Assay results as given in patent US6737383B1, “Herbicidal oxadiazolidines” (priority 1999, dated 2004).

How the values were obtained:
bedstraw = assay: Test B pre/postemergence bedstraw; type: in vivo, Galium aparine
How it was run: (§1)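 Herbicidal effect was estimated by eye on a ten-point control scale after plants spent twelve to sixteen days in a greenhouse following soil or foliar treatment. Foliar sprays targeted plants at one to four leaves; all doses were formulated in a non-phytotoxic solvent with surfactant.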

blackgrass = assay: Test B pre/postemergence blackgrass; type: in vivo, Alopecurus myosuroides
How it was run: as §1

surinam grass = assay: Test B pre/postemergence surinam grass; type: in vivo, Brachiaria decumbens
How it was run: as §1

cocklebur = assay: Test B pre/postemergence cocklebur; type: in vivo, Xanthium strumarium
How it was run: as §1

corn = assay: Test B pre/postemergence corn; type: in vivo, Zea mays
How it was run: as §1

crabgrass = assay: Test B pre/postemergence crabgrass; type: in vivo, Digitaria sanguinalis
How it was run: as §1

giant foxtail = assay: Test B pre/postemergence giant foxtail; type: in vivo, Setaria faberii
How it was run: as §1

morningglory = assay: Test B pre/postemergence morningglory; type: in vivo, Ipomoea hederacea
How it was run: as §1

pigweed = assay: Test B pre/postemergence pigweed; type: in vivo, Amaranthus retroflexus
How it was run: as §1

rape = assay: Test B pre/postemergence rape; type: in vivo, Brassica napus
How it was run: as §1

soybean = assay: Test B pre/postemergence soybean; type: in vivo, Glycine max
How it was run: as §1

sugar beet = assay: Test B pre/postemergence sugar beet; type: in vivo, Beta vulgaris
How it was run: as §1

velvetleaf = assay: Test B pre/postemergence velvetleaf; type: in vivo, Abutilon theophrasti
How it was run: as §1

wheat = assay: Test B pre/postemergence wheat; type: in vivo, Triticum aestivum
How it was run: as §1

wild oat = assay: Test B pre/postemergence wild oat; type: in vivo, Avena fatua
How it was run: as §1

purple nutsedge = assay: Test B pre/postemergence purple nutsedge; type: in vivo, Cyperus rotundus
How it was run: as §1

[1] = Postemergence, Rate 62 g/ha, scale of 0 to 10, 0 is no effect, 10 is complete control
[2] = Preemergence, Rate 62 g/ha, scale 0 to 10 (0 no effect, 10 complete control)
[3] = Preemergence, Rate 125 g/ha, scale 0 to 10, 0 is no effect, 10 is complete control
[4] = Preemergence, Rate 500 g/ha, scale of 0 to 10 where 0 is no effect and 10 is complete control
[5] = Rate 250 g/ha, Postemergence, scale of 0 to 10 where 0 is no effect and 10 is complete control
[6] = Postemergence, Rate 125 g/ha, scale 0 to 10, 0 is no effect, 10 is complete control
[7] = Postemergence, Rate 500 g/ha, scale of 0 to 10 where 0 is no effect and 10 is complete control

CCCCCn1c(=O)on(C(=O)N(c2ccccc2)C(C)C)c1=O [Compound 557]
3: Redroot pigweed plant response rating (0 to 10 scale) (pigweed; Preemergence, Rate 250 g/ha) | Sugarbeets plant response rating (sugar beet; [3]) | Sugarbeets plant response rating (0 to 10 scale) (sugar beet; Preemergence, Rate 250 g/ha) | Wheat plant response rating (wheat; [4])
10: Crabgrass plant response rating (0 to 10 scale) (crabgrass; Preemergence, Rate 250 g/ha) | Crabgrass plant response rating (crabgrass; [4]) | Giant foxtail plant response rating (0 to 10 scale) (giant foxtail; Preemergence, Rate 250 g/ha) | Giant foxtail plant response rating (giant foxtail; [4])
9: Crabgrass plant response rating (crabgrass; [2]) | Crabgrass plant response rating (crabgrass; [3]) | Giant foxtail plant response rating (giant foxtail; [2]) | Giant foxtail plant response rating (giant foxtail; [3])
8: Blackgrass plant response rating (0 to 10 scale) (blackgrass; Preemergence, Rate 250 g/ha) | Blackgrass plant response rating (blackgrass; [4]) | Morningglory plant response rating (morningglory; [6]) | Plant response rating, Morningglory (morningglory; [7])
0: Bedstraw plant response rating (bedstraw; [1]) | Bedstraw plant response rating (bedstraw; [2]) | Bedstraw plant response rating (bedstraw; [3]) | Bedstraw plant response rating (0 to 10 scale) (bedstraw; Preemergence, Rate 250 g/ha) | Bedstraw plant response rating (bedstraw; [4]) | Plant response rating, Bedstraw (bedstraw; [5]) | Blackgrass plant response rating (blackgrass; [1]) | Blackgrass plant response rating (blackgrass; [6]) | Plant response rating, Blackgrass (blackgrass; [7]) | Plant response rating, Blackgrass (blackgrass; [5]) | B. signalgrass plant response rating (surinam grass; [1]) | Cocklebur plant response rating (cocklebur; [1]) | Cocklebur plant response rating (cocklebur; [6]) | Plant response rating, Cocklebur (cocklebur; [7]) | Cocklebur plant response rating (cocklebur; [2]) | Cocklebur plant response rating (cocklebur; [3]) | Cocklebur plant response rating (0 to 10 scale) (cocklebur; Preemergence, Rate 250 g/ha) | Cocklebur plant response rating (cocklebur; [4]) | Plant response rating, Cocklebur (cocklebur; [5]) | Corn plant response rating (corn; [1]) | Corn plant response rating (corn; [6]) | Corn plant response rating (corn; [2]) | Corn plant response rating (corn; [3]) | Corn plant response rating (0 to 10 scale) (corn; Preemergence, Rate 250 g/ha) | Corn plant response rating (corn; [4]) | Plant response rating, Corn (corn; [5]) | Crabgrass plant response rating (crabgrass; [1]) | Giant foxtail plant response rating (giant foxtail; [1]) | Morningglory plant response rating (morningglory; [2]) | Morningglory plant response rating (morningglory; [3]) | Morningglory plant response rating (0 to 10 scale) (morningglory; Preemergence, Rate 250 g/ha) | Morningglory plant response rating (morningglory; [4]) | Redroot pigweed plant response rating (pigweed; [1]) | Plant response rating, Redroot pigweed (pigweed; [7]) | Redroot pigweed plant response rating (pigweed; [2]) | Redroot pigweed plant response rating (pigweed; [3]) | Plant response rating, Redroot pigweed (pigweed; [5]) | Rape plant response rating (rape; [1]) | Rape plant response rating (rape; [6]) | Plant response rating, Rape (rape; [7]) | Rape plant response rating (rape; [2]) | Rape plant response rating (rape; [3]) | Rape plant response rating (0 to 10 scale) (rape; Preemergence, Rate 250 g/ha) | Plant response rating, Rape (rape; [5]) | Soybean plant response rating (soybean; [1]) | Soybean plant response rating (soybean; [2]) | Soybean plant response rating (soybean; [3]) | Soybean plant response rating (0 to 10 scale) (soybean; Preemergence, Rate 250 g/ha) | Soybean plant response rating (soybean; [4]) | Plant response rating, Soybean (soybean; [5]) | Sugarbeets plant response rating (sugar beet; [1]) | Plant response rating, Sugarbeets (sugar beet; [7]) | Plant response rating, Sugarbeets (sugar beet; [5]) | Velvetleaf plant response rating (velvetleaf; [1]) | Velvetleaf plant response rating (velvetleaf; [2]) | Velvetleaf plant response rating (velvetleaf; [3]) | Velvetleaf plant response rating (0 to 10 scale) (velvetleaf; Preemergence, Rate 250 g/ha) | Velvetleaf plant response rating (velvetleaf; [4]) | Plant response rating, Velvetleaf (velvetleaf; [5]) | Wheat plant response rating (wheat; [1]) | Plant response rating, Wheat (wheat; [7]) | Wheat plant response rating (wheat; [2]) | Wheat plant response rating (wheat; [3]) | Wheat plant response rating (0 to 10 scale) (wheat; Preemergence, Rate 250 g/ha) | Plant response rating, Wheat (wheat; [5]) | Wild oats plant response rating (wild oat; [1]) | Plant response rating, Wild oats (wild oat; [7]) | Wild oats plant response rating (wild oat; [2]) | Wild oats plant response rating (0 to 10 scale) (wild oat; Preemergence, Rate 250 g/ha) | Plant response rating, Wild oats (wild oat; [5]) | Nutsedge plant response rating (purple nutsedge; [1]) | Nutsedge plant response rating (purple nutsedge; [6]) | Plant response rating, Nutsedge (purple nutsedge; [7]) | Nutsedge plant response rating (purple nutsedge; [2]) | Nutsedge plant response rating (purple nutsedge; [3]) | Nutsedge plant response rating (0 to 10 scale) (purple nutsedge; Preemergence, Rate 250 g/ha) | Nutsedge plant response rating (purple nutsedge; [4]) | Plant response rating, Nutsedge (purple nutsedge; [5])
6: Blackgrass plant response rating (blackgrass; [2]) | Blackgrass plant response rating (blackgrass; [3]) | B. signalgrass plant response rating (surinam grass; [3]) | Giant foxtail plant response rating (giant foxtail; [6]) | Plant response rating, Giant foxtail (giant foxtail; [7]) | Plant response rating, Giant foxtail (giant foxtail; [5]) | Redroot pigweed plant response rating (pigweed; [4])
5: Crabgrass plant response rating (crabgrass; [6]) | Morningglory plant response rating (morningglory; [1])
7: B. signalgrass plant response rating (0 to 10 scale, 0 is no effect, 10 is complete control) (surinam grass; Preemergence, Rate 250 g/ha) | B. signalgrass plant response rating (surinam grass; [4]) | Wild oats plant response rating (wild oat; [4])
4: B. signalgrass plant response rating (surinam grass; [2]) | Plant response rating, Crabgrass (crabgrass; [7]) | Plant response rating, Crabgrass (crabgrass; [5]) | Sugarbeets plant response rating (sugar beet; [4])
2: B. signalgrass plant response rating (surinam grass; [6]) | Plant response rating, B. signalgrass (surinam grass; [7]) | Plant response rating, B. signalgrass (surinam grass; [5]) | Plant response rating, Corn (corn; [7]) | Rape plant response rating (rape; [4]) | Plant response rating, Soybean (soybean; [7]) | Sugarbeets plant response rating (sugar beet; [2]) | Plant response rating, Velvetleaf (velvetleaf; [7]) | Wild oats plant response rating (wild oat; [3])
